# Key:
# SMG1 = target: T1, SMG1 (Homo sapiens, UniProt Q96Q15); test: KiNativ kinase panel; format: cell-based; settings: 1 μM, MCF-7 Cells, ATP
# T1 construct: endogenous in cells; host or cells: MCF7
# CK1g1, CK1g2, CK1g3 = test: KiNativ kinase panel; format: cell-based, human; settings: 1 μM, MCF-7 Cells, ATP Loop
# AKT2, AKT3 = test: KiNativ kinase panel; format: cell-based, human; settings: 1 μM, MCF-7 Cells, ATP Loop
# ITPK1 = target: T2, ITPK1 (Homo sapiens, UniProt Q13572); test: KiNativ kinase panel; format: cell-based; settings: 1 μM, MCF-7 Cells, ATP
# T2 construct: endogenous in cells; host or cells: MCF7
# T2 sequence (Q13572 1-414): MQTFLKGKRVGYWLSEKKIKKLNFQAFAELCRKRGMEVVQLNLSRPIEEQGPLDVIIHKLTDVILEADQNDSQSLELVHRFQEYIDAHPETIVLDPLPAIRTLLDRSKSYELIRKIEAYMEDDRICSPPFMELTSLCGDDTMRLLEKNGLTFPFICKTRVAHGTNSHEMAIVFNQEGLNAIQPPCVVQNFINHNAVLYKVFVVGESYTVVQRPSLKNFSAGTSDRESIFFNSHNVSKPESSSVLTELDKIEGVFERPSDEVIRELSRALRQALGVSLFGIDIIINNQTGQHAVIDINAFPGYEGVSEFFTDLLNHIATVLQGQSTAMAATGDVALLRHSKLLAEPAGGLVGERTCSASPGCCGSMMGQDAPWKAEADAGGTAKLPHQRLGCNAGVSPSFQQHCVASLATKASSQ
# MAP3K15, MAP3K5, MAP3K6 = test: KiNativ kinase panel; format: cell-based, human; settings: 1 μM; MCF-7 Cells; Lys1; IAIKEIPER
# CK1g1 = target: T3, CK1g1 (Homo sapiens, UniProt Q9HCP0); test: KiNativ kinase panel; format: cell-based; settings: 1 μM, MCF-7 Cells, Lys2
# T3 construct: endogenous in cells; host or cells: MCF7
# AurA, AurB, AurC = test: KiNativ kinase panel; format: cell-based, human; settings: 1 μM; MCF-7 Cells; ATP Loop; GKFGNVYLAR
# PCTAIRE1, PCTAIRE3 = test: KiNativ kinase panel; format: cell-based, human; settings: 1 μM, MCF-7 Cells, Lys2
# CDK2 = target: T4, CDK2 (Homo sapiens, UniProt P24941); test: KiNativ kinase panel; format: cell-based; settings: 1 μM, MCF-7 Cells
# T4 construct: purchased ActivX Biosciences (KiNativ)
# MAP2K1, MAP2K2 = test: KiNativ kinase panel; format: cell-based, human; settings: 1 μM, MCF-7 Cells
# CSK = target: T5, CSK (Homo sapiens, UniProt P41240); test: KiNativ kinase panel; format: cell-based; settings: 1 μM, MCF-7 Cells
# T5 construct: MCF7 cells were exposed to; endogenous in cells; host or cells: MCF7
# ULK3 = target: T6, ULK3 (Homo sapiens, UniProt Q6PHR2); test: KiNativ kinase panel; format: cell-based; settings: 1 μM, MCF-7 Cells
# T6 construct: endogenous in cells; host or cells: MCF7
# T6 sequence (Q6PHR2 1-472): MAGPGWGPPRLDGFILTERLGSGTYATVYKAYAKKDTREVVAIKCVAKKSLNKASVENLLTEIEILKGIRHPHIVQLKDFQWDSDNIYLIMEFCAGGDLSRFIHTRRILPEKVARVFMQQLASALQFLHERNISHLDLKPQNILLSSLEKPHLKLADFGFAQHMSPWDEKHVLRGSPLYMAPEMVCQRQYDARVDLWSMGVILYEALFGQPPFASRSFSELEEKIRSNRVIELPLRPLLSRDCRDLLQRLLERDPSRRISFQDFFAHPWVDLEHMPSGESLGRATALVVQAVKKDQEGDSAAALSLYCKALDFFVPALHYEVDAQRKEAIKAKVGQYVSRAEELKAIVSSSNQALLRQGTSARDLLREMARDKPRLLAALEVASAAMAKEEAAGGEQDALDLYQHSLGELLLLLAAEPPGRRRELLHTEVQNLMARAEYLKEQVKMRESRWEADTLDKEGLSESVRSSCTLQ
# MST3 = target: T7, MST3 (Homo sapiens, UniProt Q9Y6E0); test: KiNativ kinase panel; format: cell-based; settings: 1 μM; MCF-7 Cells; Lys2; DIKAANVLLSEHGEVK
# T7 construct: purchased ActivX Biosciences (KiNativ)
# MAP3K2, MAP3K3 = test: KiNativ kinase panel; format: cell-based, human; settings: 1 μM; MCF-7 Cells; Lys2; DIKGANILR
# hERG ion channel = hERG ion channel (Homo sapiens, UniProt Q12809); test: in vitro hERG inhibition; settings: for inhibition of the hERG ion channel: 10 µM
# MER, TYRO3 = test: KiNativ kinase panel; format: cell-based, human; settings: 1 μM; MCF-7 Cells; Activation Loop; KIYSGDYYR
# [1] = test system: CaMK2a, CaMK2b, CaMK2d, CaMK2g; test: KiNativ kinase panel; format: cell-based; settings: 1 μM, MCF-7 Cells, Lys2
# MARK3, MARK4 = test: KiNativ kinase panel; format: cell-based, human; settings: 1 μM; MCF-7 Cells; Lys1; EVAIKIIDK
# AMPKa1, AMPKa2 = test: KiNativ kinase panel; format: cell-based, human; settings: 1 μM, MCF-7 Cells
# [2] = ESIFFNSHNVSKPESSSVLTELDKIEGVFERPSDEVIR
# [3] = Activation Loop, VSDFGLTKEASSTQDTGKLPVK
# T5 sequence (P41240 whole entry): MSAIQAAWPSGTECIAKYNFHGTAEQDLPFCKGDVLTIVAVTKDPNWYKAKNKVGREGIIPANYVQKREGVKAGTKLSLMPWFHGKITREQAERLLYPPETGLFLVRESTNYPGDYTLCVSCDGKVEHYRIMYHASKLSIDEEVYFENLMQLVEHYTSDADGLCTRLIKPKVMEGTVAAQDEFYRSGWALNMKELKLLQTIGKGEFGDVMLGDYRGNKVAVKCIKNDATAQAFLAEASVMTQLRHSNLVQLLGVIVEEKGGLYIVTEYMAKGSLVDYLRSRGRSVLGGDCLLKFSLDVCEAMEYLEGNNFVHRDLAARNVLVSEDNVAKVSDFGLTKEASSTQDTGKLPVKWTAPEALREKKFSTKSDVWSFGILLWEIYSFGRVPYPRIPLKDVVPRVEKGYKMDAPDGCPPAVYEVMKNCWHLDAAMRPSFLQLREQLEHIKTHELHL
# Chain of hERG ion channel (Q12809 whole entry): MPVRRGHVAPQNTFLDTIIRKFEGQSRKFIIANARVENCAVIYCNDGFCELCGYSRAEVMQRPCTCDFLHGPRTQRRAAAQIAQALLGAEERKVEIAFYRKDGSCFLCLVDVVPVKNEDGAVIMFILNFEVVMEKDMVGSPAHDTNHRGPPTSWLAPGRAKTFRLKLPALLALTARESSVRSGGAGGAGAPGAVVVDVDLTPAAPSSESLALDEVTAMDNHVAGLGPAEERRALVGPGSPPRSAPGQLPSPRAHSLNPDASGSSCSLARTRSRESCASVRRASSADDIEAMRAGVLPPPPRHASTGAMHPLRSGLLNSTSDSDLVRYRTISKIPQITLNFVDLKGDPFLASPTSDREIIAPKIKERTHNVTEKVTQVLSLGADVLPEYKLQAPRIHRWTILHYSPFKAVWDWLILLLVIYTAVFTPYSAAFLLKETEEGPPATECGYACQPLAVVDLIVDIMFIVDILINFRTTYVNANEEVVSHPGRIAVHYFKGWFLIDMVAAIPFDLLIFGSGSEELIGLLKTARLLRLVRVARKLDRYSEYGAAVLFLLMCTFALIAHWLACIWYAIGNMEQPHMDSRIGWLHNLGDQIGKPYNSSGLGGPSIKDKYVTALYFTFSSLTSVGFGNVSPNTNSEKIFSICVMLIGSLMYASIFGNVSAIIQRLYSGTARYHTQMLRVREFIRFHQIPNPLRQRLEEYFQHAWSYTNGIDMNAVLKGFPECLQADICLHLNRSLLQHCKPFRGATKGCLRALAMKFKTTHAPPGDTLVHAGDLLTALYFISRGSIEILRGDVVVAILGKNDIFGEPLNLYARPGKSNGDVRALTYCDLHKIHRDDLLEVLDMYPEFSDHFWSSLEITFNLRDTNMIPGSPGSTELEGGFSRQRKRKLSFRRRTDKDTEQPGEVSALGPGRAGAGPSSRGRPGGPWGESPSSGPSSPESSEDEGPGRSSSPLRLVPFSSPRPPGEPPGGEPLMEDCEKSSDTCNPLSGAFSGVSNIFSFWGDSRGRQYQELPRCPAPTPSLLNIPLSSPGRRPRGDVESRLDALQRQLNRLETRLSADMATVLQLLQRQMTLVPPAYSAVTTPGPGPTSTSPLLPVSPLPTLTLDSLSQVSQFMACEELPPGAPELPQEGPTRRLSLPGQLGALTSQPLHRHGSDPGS
# T3 sequence (Q9HCP0 whole entry): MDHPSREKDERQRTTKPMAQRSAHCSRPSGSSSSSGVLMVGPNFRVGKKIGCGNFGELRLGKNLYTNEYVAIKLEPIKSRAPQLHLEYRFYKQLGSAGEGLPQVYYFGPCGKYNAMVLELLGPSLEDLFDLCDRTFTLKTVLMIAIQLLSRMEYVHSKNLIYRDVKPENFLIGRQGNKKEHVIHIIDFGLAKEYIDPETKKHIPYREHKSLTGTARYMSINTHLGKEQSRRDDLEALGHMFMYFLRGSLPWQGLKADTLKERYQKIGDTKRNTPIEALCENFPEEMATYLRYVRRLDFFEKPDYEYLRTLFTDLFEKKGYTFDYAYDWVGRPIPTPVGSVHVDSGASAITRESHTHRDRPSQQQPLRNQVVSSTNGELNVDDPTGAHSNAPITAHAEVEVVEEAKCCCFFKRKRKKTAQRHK
# T7 sequence (Q9Y6E0 whole entry): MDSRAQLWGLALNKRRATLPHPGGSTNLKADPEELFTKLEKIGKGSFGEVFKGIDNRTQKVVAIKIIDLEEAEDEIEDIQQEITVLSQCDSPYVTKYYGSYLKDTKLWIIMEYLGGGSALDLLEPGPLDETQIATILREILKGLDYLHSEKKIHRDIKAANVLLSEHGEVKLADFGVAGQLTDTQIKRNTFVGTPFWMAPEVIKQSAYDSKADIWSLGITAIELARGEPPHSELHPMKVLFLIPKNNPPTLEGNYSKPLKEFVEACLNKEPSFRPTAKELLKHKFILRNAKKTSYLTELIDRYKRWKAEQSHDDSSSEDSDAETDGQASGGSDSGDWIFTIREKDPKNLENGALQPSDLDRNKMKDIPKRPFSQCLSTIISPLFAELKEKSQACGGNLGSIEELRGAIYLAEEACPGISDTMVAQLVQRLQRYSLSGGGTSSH
Structure (SMILES),KiNativ Kinase Panel Data (SMG1; DTVTIHSVGGTITILPTKTKPK),KiNativ Kinase Panel Data (SMG1; SYPYLFKGLEDLHLDER),KiNativ Kinase Panel Data (ITPK1; [2]),"KiNativ Kinase Panel Data (MAP3K15, MAP3K5, MAP3K6)","KiNativ Kinase Panel Data (AurA, AurB, AurC)","KiNativ Kinase Panel Data (CDK2; Lys1, LTGEVVALKK)","KiNativ Kinase Panel Data (CDK2; Lys2, DLKPQNLLINTEGAIK)","KiNativ Kinase Panel Data (MAP2K1, MAP2K2; Lys1, KLIHLEIKPAIR)",KiNativ Kinase Panel Data (CSK; [3]),"KiNativ Kinase Panel Data (CSK; Lys1, VAVKCIK)",KiNativ Kinase Panel Data (MST3),"KiNativ Kinase Panel Data (MAP3K2, MAP3K3)",in vitro hERG inhibition (10 μM) (hERG ion channel) [%],inhibition of the hERG ion channel (hERG ion channel),"KiNativ Kinase Panel Data (MER, TYRO3)","KiNativ Kinase Panel Data (MARK3, MARK4)","KiNativ Kinase Panel Data (AMPKa1, AMPKa2; Lys1, VAVKILNR)",other results
CO[C@H]1C[C@@H]2CC[C@@H](C)[C@@](O)(O2)C(=O)C(=O)N2CCCC[C@H]2C(=O)O[C@H]([C@H](C)C[C@@H]2CC[C@@H](OC(=O)NCCOCCOCCOCCOCCOCCOCCOCCOCCC(=O)NCCS(=O)(=O)c3ccc(C(=O)N4CCOc5ccc(-c6ccc(N)nc6)cc5C4)c(C)c3F)[C@H](OC)C2)C[C@@H](O)[C@H](C)/C=C(\C)[C@@H](O)[C@@H](OC)C(=O)[C@H](C)C[C@H](C)/C=C/C=C/C=C/1C [compound 40],-11.1,11.7,-9.6,-4.5,-3.6,-29.1,-40.9,-34.9,5.5,17.7,11.0,-18.2,6,low,7.1,13.2,2.1,"KiNativ Kinase Panel Data (CK1g1, CK1g2, CK1g3; KIGCGNFGELR): -7.8; KiNativ Kinase Panel Data (AKT2, AKT3; GTFGKVILVR): -101.1; KiNativ Kinase Panel Data (ITPK1; NFSAGTSDRESIFFNSHNVSKPESSSVLTELDKIEGVFERPSDEVIR): -12.4; KiNativ Kinase Panel Data (CK1g1; DVKPENFLIGR): 1.3; KiNativ Kinase Panel Data (PCTAIRE1, PCTAIRE3; DLKPQNLLINER): -31.2; KiNativ Kinase Panel Data (MAP2K1, MAP2K2; Lys2, DVKPSNILVNSR): -22.1; KiNativ Kinase Panel Data (ULK3; Lys1, EVVAIKCVAK): -22.8; KiNativ Kinase Panel Data (ULK3; Lys2, NISHLDLKPQNILLSSLEKPHLK): -5.4; KiNativ Kinase Panel Data ([1]; DLKPENLLLASK): -30.6; KiNativ Kinase Panel Data (AMPKa1, AMPKa2; Lys2, DLKPENVLLDAHMNAK): -1.3"
CO[C@H]1C[C@@H]2CC[C@@H](C)[C@@](O)(O2)C(=O)C(=O)N2CCCC[C@H]2C(=O)O[C@H]([C@H](C)C[C@@H]2CC[C@@H](OC(=O)NCCOCCOCCOCCOCCOCCOCCOCCOCCC(=O)N3CCc4cc(Cn5nc(-c6ccc7oc(N)nc7c6)c6c(N)ncnc65)ccc4C3)[C@H](OC)C2)C[C@@H](O)[C@H](C)/C=C(\C)[C@@H](O)[C@@H](OC)C(=O)[C@H](C)C[C@H](C)/C=C/C=C/C=C/1C [compound 38],0.8,21.6,6.5,24.5,34.8,1.0,13.1,14.8,1.9,13.6,22.2,-12.6,16,low,-0.7,7.2,6.8,"KiNativ Kinase Panel Data (CK1g1, CK1g2, CK1g3; […]): 8.9; KiNativ Kinase Panel Data (AKT2, AKT3; […]): -13.5; KiNativ Kinase Panel Data (ITPK1; […]): 22.4; KiNativ Kinase Panel Data (CK1g1; […]): 4.7; KiNativ Kinase Panel Data (PCTAIRE1, PCTAIRE3; […]): 13.9; KiNativ Kinase Panel Data (MAP2K1, MAP2K2; Lys2, […]): 7.6; KiNativ Kinase Panel Data (ULK3; Lys1, […]): 0.5; KiNativ Kinase Panel Data (ULK3; Lys2, […]): 11.9; KiNativ Kinase Panel Data ([1]; […]): 26.2; KiNativ Kinase Panel Data (AMPKa1, AMPKa2; Lys2, […]): -6.5"

# Reference: article PMC9841523 (Journal of Medicinal Chemistry, 2022)
